Data taken from US10392385B2, “N-((1-phenyl-9H-pyrido[3,4-b]indol-3-yl)methyl)cinnamamides as potential anticancer agents and preparation thereof” (Council of Scientific & Industrial Research, priority 2016, dated 2019).

Columns and labels:
HeLa (cervical cancer) = assay: MTT cytotoxicity assay, HeLa; type: cell-based; settings: Homo sapiens, of drug treatment (footnote), average of three experiments
Description: (§1) The N-((1-phenyl-9H-pyrido[3,4-b]indol-3-yl)methyl)cinnamamides (1a-h, 2a-h and 3a-h) have been tested against five human cancer cell lines such as A549 (lung cancer), MCF-7 (breast cancer), B16 (melanoma), HeLa (cervical cancer) and NIH3T3 (mouse embryonic fibroblast cancer). All the cancer cell lines (HeLa, A549, MCF-7 and B16) were procured from National Centre for Cell Sciences (NCCS, Pune, India) and NIH 3T3 cell line was obtained from American Type Culture Collection (Rockville, Md., USA). Stock cells were cultured in DMEM supplemented with 10% Fetal Bovine Serum (FBS), in an humidified atmosphere of 5% CO2 at 37° C. until they are 80% confluent. To study the cytotoxicity of the compounds, after 80% confluence, cells were trypsinized with 0.1% trypsin-EDTA and harvested by centrifugation at 500×g. Serial dilutions of cells were made from 1×10^6 to 1×10^3 cells per mL The cells were seeded in triplicate in a 96 well plate. […]. […] The cell viability was determined by measuring the ability of cells to transform MTT to a purple coloured formazan dye. The absorbance of samples at 570 nm was measured using a UV-Visible spectrophotometer. Percentage of viable cells was calculated by using the formula given below.
(§2) Where the OD570 (sample) corresponds to absorbance obtained from the wells treated with compound and OD570 (control) represents the absorbance from the wells in which no compound was added. For these compounds results are expressed as half maximal inhibitory concentration (IC50) values and the anticancer activity data of 1a-h, 2a-h and 3a-h are shown in Table 2.

B16 (melanoma) = assay: MTT cytotoxicity assay, B16; type: cell-based; settings: 48 h of drug treatment (footnote), average of three experiments
Description: as §1, §2

A549 (lung cancer) = assay: MTT cytotoxicity assay, A549; type: cell-based; settings: Homo sapiens, 48 h of drug treatment (footnote), average of three experiments
Description: as §1
Where the OD570 (sample) corresponds to absorbance obtained from the wells treated with compound and OD570 (control) represents the absorbance from the wells in which no compound was added.

MCF-7 (breast cancer) = assay: MTT cytotoxicity assay, MCF-7; type: cell-based; settings: Homo sapiens, MCF7, average of three experiments
Description: as §1, §2

[1] = test system: NIH3T3 (mouse embryonic fibroblast cell line); assay: MTT cytotoxicity assay, NIH3T3; type: cell-based; settings: 48 h of drug treatment (footnote), average of three experiments
Description: as §1, §2

melting point [°C] | Structure (SMILES) | IC50 (HeLa (cervical cancer)) [nM] | IC50 (B16 (melanoma)) [nM] | IC50 (A549 (lung cancer)) [nM] | IC50 (MCF-7 (breast cancer)) [nM] | IC50 [1] [nM]
148 to 150 | COc1cc(-c2nc(CNC(=O)/C=C/c3ccc(Cl)cc3)cc3c2[nH]c2ccccc23)cc(OC)c1OC [Compound 2f, (E)-3-(4-chlorophenyl)-N-((1-(3,4,5-trimethoxyphenyl)-9H-pyrido[3,4-b]indol-3-yl)methyl)acrylamide] | 26.8 ± 0.4 | 18.7 ± 1.1 | 18.9 ± 1.7 | 17.5 ± 0.9 | 35.6 ± 2.1
175 to 178 | COc1cc(/C=C/C(=O)NCc2cc3c([nH]c4ccccc43)c(-c3cc(OC)c(OC)c(OC)c3)n2)ccc1O [Compound 2g, (E)-3-(4-hydroxy-3-methoxyphenyl)-N-((1-(3,4,5-trimethoxyphenyl)-9H-pyrido[3,4-b]indol-3-yl)methyl)acrylamide] | 26 ± 0.3 | 19 ± 0.9 | 18.3 ± 1.4 | 17.6 ± 0.7 | 43.1 ± 1.3
175 to 178 | COc1cc(-c2nc(CNC(=O)/C=C/c3cccc(O)c3)cc3c2[nH]c2ccccc23)cc(OC)c1OC [Compound 2h, (E)-3-(3-hydroxyphenyl)-N-((1-(3,4,5-trimethoxyphenyl)-9H-pyrido[3,4-b]indol-3-yl)methyl)acrylamide] | 23.65 ± 0.1 | 21.8 ± 0.8 | 19.5 ± 1.5 | 16.8 ± 0.5 | 38.2 ± 1.5
148 to 150 | COc1ccc(-c2nc(CNC(=O)/C=C/c3cc(OC)c(OC)c(OC)c3)cc3c2[nH]c2ccccc23)cc1 [Compound 3a, (E)-N-((1-(4-methoxyphenyl)-9H-pyrido[3,4-b]indol-3-yl)methyl)-3-(3,4,5-trimethoxyphenyl)acrylamide] | 22.89 ± 0.2 | 17.4 ± 0.4 | 19.7 ± 0.6 | 13.4 | 39.3 ± 1.7
188 to 190 | COc1ccc(-c2nc(CNC(=O)/C=C/c3ccc(Cl)c(Cl)c3)cc3c2[nH]c2ccccc23)cc1 [Compound 3b, (E)-3-(3,4-dichlorophenyl)-N-((1-(4-methoxyphenyl)-9H-pyrido[3,4-b]indol-3-yl)methyl)acrylamide] | 21.6 ± 0.4 | 23 ± 0.5 | 18.4 ± 0.7 | 16.4 ± 0.5 | 37.5 ± 1.4

The remaining lines, values behind:

Structure (SMILES) | melting point [°C] | IC50 (HeLa (cervical cancer)) [nM] | IC50 (B16 (melanoma)) [nM] | IC50 (A549 (lung cancer)) [nM] | IC50 (MCF-7 (breast cancer)) [nM] | IC50 [1] [nM]
COc1cc(-c2nc(CNC(=O)/C=C/c3ccc(F)cc3)cc3c2[nH]c2ccccc23)cc(OC)c1OC [Compound 2c, (E)-3-(4-fluorophenyl)-N-((1-(3,4,5-trimethoxyphenyl)-9H-pyrido[3,4-b]indol-3-yl)methyl)acrylamide] | 214 to 218 | 20 ± 0.5 | 17.2 ± 0.3 | 18.7 ± 0.7 | 16.4 ± 0.8 | 43 ± 1.1
COc1cc(-c2nc(CNC(=O)/C=C/c3cc(F)cc(F)c3)cc3c2[nH]c2ccccc23)cc(OC)c1OC [Compound 2d, (E)-3-(3,5-difluorophenyl)-N-((1-(3,4,5-trimethoxyphenyl)-9H-pyrido[3,4-b]indol-3-yl)methyl)acrylamide] | 228 to 230 | 23.8 ± 0.3 | 24.1 ± 0.7 | 21.6 ± 1.2 | 19.6 ± 1.1 | 36.3 ± 1.7
COc1ccc(OC)c(/C=C/C(=O)NCc2cc3c([nH]c4ccccc43)c(-c3cc(OC)c(OC)c(OC)c3)n2)c1 [Compound 2e, (E)-3-(2,5-dimethoxyphenyl)-N-((1-(3,4,5-trimethoxyphenyl)-9H-pyrido[3,4-b]indol-3-yl)methyl)acrylamide] | 148 to 150 | 25.09 ± 0.2 | 19.2 ± 1.4 | 18.8 ± 1.4 | 17.2 ± 0.6 | 39 ± 1.9
COc1ccc(-c2nc(CNC(=O)/C=C/c3ccc(Cl)cc3)cc3c2[nH]c2ccccc23)cc1 [Compound 3f, (E)-3-(4-chlorophenyl)-N-((1-(4-methoxyphenyl)-9H-pyrido[3,4-b]indol-3-yl)methyl)acrylamide] | – | 21.6 ± 0.6 | 16.6 ± 0.5 | 18.9 ± 1.1 | 14.1 | 38.3 ± 1.3
COc1ccc(-c2nc(CNC(=O)/C=C/c3cccc(O)c3)cc3c2[nH]c2ccccc23)cc1 [Compound 3h, (E)-3-(3-hydroxyphenyl)-N-((1-(4-methoxyphenyl)-9H-pyrido[3,4-b]indol-3-yl)methyl)acrylamide] | – | 22.3 ± 0.3 | 16.3 ± 0.3 | 18.9 ± 1.4 | 13.8 | 37.2 ± 1.1
